Earlier results in patent US20080095853A1, “Modified Release For Proton Pump Inhibitors” (priority 2004, published 2008).

Tested on: gastric acid
Details: splitting a 40 mg dose into 20 mg bid

For `COc1ccc2nc([S@@+]([O-])Cc3ncc(C)c(OC)c3C)[nH]c2c1` [esomeprazole], the “nocturnal gastric acid suppression” value is given as “significantly improved”.
